Source: the NIST ThermoML archive (doi:10.1021/je060271a)
± gives the expanded uncertainty stated by the source.

Conditions: 323.15 K, Liquid, Vibrating tube method

Measured: mass density

CCCCCCCC(=O)OCC(COC(=O)CCCCCCC)(COC(=O)CCCCCCC)COC(=O)CCCCCCC [pentaerythritol tetraoctanoate]
948.1 ± 1.2 kg/m3: 11019 kPa | 11040 kPa | 11132 kPa | 11153 kPa | 11175 kPa | 11200 kPa | 11222 kPa | 11248 kPa | 11270 kPa | 11292 kPa | 11319 kPa | 11341 kPa | 11362 kPa
950.5 ± 1.2 kg/m3: 14707 kPa | 14812 kPa | 14846 kPa | 14947 kPa | 15012 kPa | 15052 kPa | 15085 kPa | 15114 kPa | 15143 kPa | 15246 kPa
948.5 ± 1.2 kg/m3: 11725 kPa | 11744 kPa | 11792 kPa | 11855 kPa | 11880 kPa | 11909 kPa
946.8 ± 1.2 kg/m3: 9121.3 kPa | 9212.7 kPa | 9247.8 kPa
949.2 ± 1.2 kg/m3: 12897 kPa | 12932 kPa | 12961 kPa | 13026 kPa | 13080 kPa | 13104 kPa | 13170 kPa
948.6 ± 1.2 kg/m3: 11935 kPa | 11961 kPa | 11986 kPa | 12041 kPa | 12095 kPa | 12146 kPa | 12176 kPa | 12228 kPa
948.7 ± 1.2 kg/m3: 12010 kPa | 12065 kPa | 12202 kPa | 12255 kPa
949 ± 1.2 kg/m3: 12570 kPa | 12626 kPa | 12660 kPa | 12716 kPa | 12744 kPa | 12777 kPa | 12839 kPa
946.2 ± 1.2 kg/m3: 8061.6 kPa | 8229.4 kPa | 8252.6 kPa | 8275.8 kPa | 8303.6 kPa | 8327.1 kPa | 8355.7 kPa | 8506.8 kPa
946.7 ± 1.2 kg/m3: 8972.8 kPa | 9006 kPa | 9062.8 kPa | 9092.9 kPa | 9155.1 kPa
947.5 ± 1.2 kg/m3: 10192 kPa | 10264 kPa | 10337 kPa | 10405 kPa
950.1 ± 1.2 kg/m3: 14301 kPa | 14345 kPa | 14452 kPa | 14505 kPa | 14617 kPa
947.7 ± 1.2 kg/m3: 10520 kPa | 10553 kPa | 10580 kPa | 10695 kPa
951.4 ± 1.2 kg/m3: 16273 kPa
948.3 ± 1.2 kg/m3: 11384 kPa | 11411 kPa | 11483 kPa | 11506 kPa | 11533 kPa | 11607 kPa | 11626 kPa
945.7 ± 1.2 kg/m3: 7720.9 kPa | 7769.4 kPa
946.9 ± 1.2 kg/m3: 9183.5 kPa | 9276.8 kPa | 9311.6 kPa | 9341.2 kPa | 9371.1 kPa | 9401 kPa | 9437.9 kPa | 9503.2 kPa | 9570.9 kPa
947.6 ± 1.2 kg/m3: 10231 kPa | 10297 kPa | 10372 kPa | 10435 kPa | 10467 kPa | 10494 kPa | 10608 kPa | 10759 kPa
945.8 ± 1.2 kg/m3: 7680.3 kPa | 7700.7 kPa | 7878.8 kPa | 7968.9 kPa
949.7 ± 1.2 kg/m3: 13581 kPa | 13614 kPa | 13685 kPa | 13756 kPa | 13823 kPa | 13863 kPa | 13932 kPa | 14041 kPa
950.9 ± 1.2 kg/m3: 15510 kPa | 15677 kPa | 15702 kPa | 15734 kPa | 15761 kPa | 15787 kPa
950.3 ± 1.2 kg/m3: 14738 kPa | 14780 kPa | 14877 kPa
946.4 ± 1.2 kg/m3: 8482 kPa | 8531.5 kPa | 8560.6 kPa | 8610.8 kPa | 8640.7 kPa | 8666 kPa | 8691.5 kPa | 8722.7 kPa | 8774.8 kPa | 8832.8 kPa
946.6 ± 1.2 kg/m3: 8859.7 kPa | 8945.9 kPa | 9034.1 kPa
949.1 ± 1.2 kg/m3: 12805 kPa | 12868 kPa | 12990 kPa
948.2 ± 1.2 kg/m3: 11433 kPa | 11460 kPa | 11579 kPa | 11678 kPa
948.4 ± 1.2 kg/m3: 11555 kPa | 11654 kPa | 11701 kPa | 11768 kPa | 11831 kPa
946.3 ± 1.2 kg/m3: 8379.5 kPa | 8404.2 kPa | 8428.3 kPa | 8452.5 kPa
948 ± 1.2 kg/m3: 10887 kPa | 10997 kPa | 11065 kPa | 11086 kPa | 11111 kPa
949.9 ± 1.2 kg/m3: 13897 kPa | 14007 kPa | 14076 kPa | 14152 kPa | 14230 kPa
951 ± 1.2 kg/m3: 15818 kPa | 15872 kPa | 15954 kPa
951.2 ± 1.2 kg/m3: 15845 kPa | 16046 kPa | 16245 kPa
946.5 ± 1.2 kg/m3: 8585.3 kPa | 8748.4 kPa | 8806.4 kPa | 8886 kPa | 8918.8 kPa
950.7 ± 1.2 kg/m3: 15220 kPa | 15324 kPa | 15350 kPa | 15430 kPa | 15485 kPa
951.1 ± 1.2 kg/m3: 15903 kPa | 15931 kPa | 15980 kPa | 16008 kPa | 16073 kPa | 16134 kPa | 16194 kPa
950.6 ± 1.2 kg/m3: 15167 kPa | 15191 kPa | 15270 kPa | 15299 kPa
950.4 ± 1.2 kg/m3: 14909 kPa | 14979 kPa
947.4 ± 1.2 kg/m3: 9949.2 kPa | 10160 kPa
948.8 ± 1.2 kg/m3: 12120 kPa | 12286 kPa | 12313 kPa
947.3 ± 1.2 kg/m3: 9860.5 kPa | 9901 kPa | 9984 kPa | 10059 kPa | 10090 kPa | 10128 kPa
946.1 ± 1.2 kg/m3: 8084.3 kPa | 8107.1 kPa | 8134 kPa | 8179.4 kPa
946 ± 1.2 kg/m3: 7811.3 kPa | 7922.1 kPa | 7947.7 kPa | 7990.6 kPa | 8017 kPa | 8039.8 kPa | 8156.6 kPa | 8206.5 kPa
949.3 ± 1.2 kg/m3: 13056 kPa | 13134 kPa | 13279 kPa | 13347 kPa
950.8 ± 1.2 kg/m3: 15374 kPa | 15404 kPa | 15454 kPa | 15541 kPa | 15567 kPa | 15594 kPa | 15619 kPa | 15650 kPa
951.3 ± 1.2 kg/m3: 16106 kPa | 16161 kPa | 16222 kPa
949.4 ± 1.2 kg/m3: 13212 kPa | 13248 kPa | 13310 kPa | 13378 kPa
945.9 ± 1.2 kg/m3: 7748.8 kPa | 7790.4 kPa | 7832.2 kPa | 7857.7 kPa | 7900.5 kPa
947.2 ± 1.2 kg/m3: 9665.6 kPa | 9774.4 kPa | 9806.9 kPa | 10026 kPa
949.8 ± 1.2 kg/m3: 13965 kPa
947.1 ± 1.2 kg/m3: 9534 kPa | 9704.2 kPa | 9736 kPa | 9834 kPa
948.9 ± 1.2 kg/m3: 12339 kPa | 12456 kPa | 12482 kPa | 12510 kPa | 12537 kPa | 12598 kPa | 12688 kPa
949.5 ± 1.2 kg/m3: 13511 kPa | 13543 kPa
947.8 ± 1.2 kg/m3: 10643 kPa | 10672 kPa | 10719 kPa | 10739 kPa | 10779 kPa | 10802 kPa | 10822 kPa | 10847 kPa | 10867 kPa | 10932 kPa
947.9 ± 1.2 kg/m3: 10911 kPa | 10948 kPa | 10977 kPa
949.6 ± 1.2 kg/m3: 13409 kPa | 13447 kPa | 13479 kPa | 13652 kPa | 13717 kPa | 13790 kPa
950 ± 1.2 kg/m3: 14118 kPa | 14187 kPa | 14266 kPa
950.2 ± 1.2 kg/m3: 14376 kPa | 14414 kPa | 14544 kPa | 14573 kPa | 14647 kPa | 14671 kPa
947 ± 1.2 kg/m3: 9469.8 kPa | 9602.4 kPa | 9633.9 kPa
